In one test the target is CK1δ (Homo sapiens, UniProt P48730). As to the kind of experiment: CK1δ kinase assay (Caliper LabChip electrophoretic separation of fluoresceinated peptide substrate and product). As to conditions: 200 pM CK1δ, 50 μM ATP, 1.5 μM peptide, 22 hours at room temperature; read-out: CK1δ IC50 range. The test is classed as biochemical. The gist of the method: (§1)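 Reactions ran 22 hours at room temperature and were stopped with EDTA. Phosphorylated product and unphosphorylated substrate were then separated electrophoretically. Compounds were tested at eleven concentrations, and IC50 values came from non-linear regression.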

The target of a further test is CK1ε (Homo sapiens, UniProt P49674). As to the kind of experiment: CK1ε kinase assay (Caliper LabChip electrophoretic separation of fluoresceinated peptide substrate and product). The test is classed as biochemical. As to conditions: 200 pM CK1ε, 50 μM ATP, 1.5 μM peptide, 22 hours at room temperature; read-out: CK1ε IC50 range. A digest of the protocol: as §1

What is called IC50 is the point on the concentration scale where inhibition reaches its midpoint.

CK1δ, sequence (P48730 whole entry): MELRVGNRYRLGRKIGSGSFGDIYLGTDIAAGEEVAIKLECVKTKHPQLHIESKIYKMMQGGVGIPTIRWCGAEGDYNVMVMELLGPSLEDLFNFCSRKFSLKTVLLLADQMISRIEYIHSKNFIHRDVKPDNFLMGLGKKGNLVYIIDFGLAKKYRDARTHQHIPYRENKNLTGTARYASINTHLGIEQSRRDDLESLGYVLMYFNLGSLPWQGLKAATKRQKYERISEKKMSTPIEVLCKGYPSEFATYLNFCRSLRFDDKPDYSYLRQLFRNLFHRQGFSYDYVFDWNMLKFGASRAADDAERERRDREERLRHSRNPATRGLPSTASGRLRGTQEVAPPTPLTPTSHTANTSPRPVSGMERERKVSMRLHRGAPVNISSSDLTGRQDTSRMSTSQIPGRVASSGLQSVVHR
CK1ε, sequence (P49674 whole entry): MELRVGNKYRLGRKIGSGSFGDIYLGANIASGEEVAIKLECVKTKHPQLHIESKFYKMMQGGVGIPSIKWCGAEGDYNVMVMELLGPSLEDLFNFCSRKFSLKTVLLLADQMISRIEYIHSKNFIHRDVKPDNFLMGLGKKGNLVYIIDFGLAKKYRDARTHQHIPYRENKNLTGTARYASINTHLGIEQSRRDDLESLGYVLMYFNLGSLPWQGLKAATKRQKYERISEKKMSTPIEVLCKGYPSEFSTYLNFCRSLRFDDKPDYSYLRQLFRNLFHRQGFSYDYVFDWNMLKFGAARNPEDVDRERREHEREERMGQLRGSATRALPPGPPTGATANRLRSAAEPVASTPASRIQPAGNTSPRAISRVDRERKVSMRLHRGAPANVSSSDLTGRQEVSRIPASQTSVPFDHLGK

On to `CC(C)(CO)NC(=O)N1CCn2nc(-c3ccc(F)c(Cl)c3)c(C(N)=O)c2C1` [Compound A48, 2-(3-Chloro-4-fluorophenyl)-N^5-(1-hydroxy-2-methylpropan-2-yl)-6,7-dihydropyrazolo[1,5-a] pyrazine-3,5(4H)-dicarboxamide], for which the 50% inhibitory concentration (IC50) at CK1δ and at CK1ε was 0.01 to 10 nM in each case.

On to `NC(=O)c1c(-c2ccc(F)c(Cl)c2)nn2c1CN(C(=O)NC(CF)(CF)CF)CC2` [Compound A49, 2-(3-Chloro-4-fluorophenyl)-N^5-(1,3-difluoro-2-(fluoromethyl)propan-2-yl)-6,7-dihydropyrazolo[1,5-a] pyrazine-3,5(4H)-dicarboxamide], for which the IC50 at CK1δ and on CK1ε was 0.01 to 10 nM in each case.

With `N#Cc1ccc(C23CCC(NC(=O)N4CCn5nc(-c6ccc(F)c(Cl)c6)c(C(N)=O)c5C4)(CC2)CC3)cc1` [Compound A51, 2-(3-Chloro-4-fluorophenyl)-N^5-(4-(4-cyanophenyl)bicyclo[2.2.2]octan-1-yl)-6,7-dihydropyrazolo[1,5-a]pyrazine-3,5(4H)-dicarboxamide], the IC50 at CK1δ and on CK1ε was 0.01 to 10 nM each time.

As to `NC(=O)c1c(-c2ccc(F)c(Cl)c2)nn2c1CN(C(=O)NC13CCC(c4ccc(F)cc4)(CC1)CC3)CC2` [Compound A52, 2-(3-Chloro-4-fluorophenyl)-N^5-(4-(4-fluorophenyl)bicyclo[2.2.2]octan-1-yl)-6,7-dihydropyrazolo[1,5-a]pyrazine-3,5(4H)-dicarboxamide], the IC50 at CK1δ and at CK1ε was 0.01 to 10 nM in each case.

For `NC(=O)c1c(-c2ccc(F)c(Cl)c2)nn2c1CN(C(=O)NC13CCC(c4ccccc4)(CC1)CC3)CC2` [Compound A53, 2-(3-Chloro-4-fluorophenyl)-N^5-(4-phenylbicyclo[2.2.2]octan-1-yl)-6,7-dihydropyrazolo[1,5-a]pyrazine-3,5(4H)-dicarboxamide], the IC50 on CK1δ and on CK1ε was 0.01 to 10 nM in each case.

For the compound `NC(=O)c1c(-c2ccc(F)c(Cl)c2)nn2c1CN(C(=O)NC13CCC(F)(CC1)CC3)CC2` [Compound A54, 2-(3-Chloro-4-fluorophenyl)-N^5-(4-fluorobicyclo[2.2.2]octan-1-yl)-6,7-dihydropyrazolo[1,5-a]pyrazine-3,5(4H)-dicarboxamide], the IC50 at CK1δ and on CK1ε was 0.01 to 10 nM each time.

Turning to `NC(=O)c1c(-c2ccc(F)c(Cl)c2)nn2c1CN(C(=O)NC13CCC(CO)(CC1)CC3)CC2` [Compound A55, 2-(3-Chloro-4-fluorophenyl)-N^5-(4-(hydroxymethyl)bicyclo[2.2.2]octan-1-yl)-6,7-dihydropyrazolo[1,5-a]pyrazine-3,5(4H)-dicarboxamide], the IC50 at CK1δ and at CK1ε was 0.01 to 10 nM each time.

On to `NC(=O)c1c(-c2ccc(F)c(Cl)c2)nn2c1CN(C(=O)NC13CCC(CF)(CC1)CC3)CC2` [Compound A56, 2-(3-Chloro-4-fluorophenyl)-N^5-(4-(fluoromethyl)bicyclo[2.2.2]octan-1-yl)-6,7-dihydropyrazolo[1,5-a]pyrazine-3,5(4H)-dicarboxamide], for which the IC50 on CK1δ and on CK1ε was 0.01 to 10 nM throughout.

Turning to `NC(=O)c1c(-c2ccc(F)c(Cl)c2)nn2c1CN(C(=O)NC13CCC(CC1)CC3)CC2` [Compound A58, N^5-(Bicyclo[2.2.2]octan-1-yl)-2-(3-chloro-4-fluorophenyl)-6,7-dihydropyrazolo[1,5-a]pyrazine-3,5(4H)-dicarboxamide], the IC50 on CK1δ and at CK1ε was 0.01 to 10 nM each time.

As for `COC12CCC(NC(=O)N3CCn4nc(-c5ccc(F)c(Cl)c5)c(C(N)=O)c4C3)(CC1)C(F)(F)C2` [Compound A61, 2-(3-Chloro-4-fluorophenyl)-N^5-(2,2-difluoro-4-methoxybicyclo[2.2.2]octan-1-yl)-6,7-dihydropyrazolo[1,5-a]pyrazine-3,5(4H)-dicarboxamide], the IC50 at CK1δ and on CK1ε was 0.01 to 10 nM each time.

Take `CC(C)(O)C12CCC(NC(=O)N3CCn4nc(-c5ccc(F)c(Cl)c5)c(C(N)=O)c4C3)(CC1)CC2` [Compound A62, 2-(3-Chloro-4-fluorophenyl)-N^5-(4-(2-hydroxypropan-2-yl)bicyclo[2.2.2]octan-1-yl)-6,7-dihydropyrazolo[1,5-a]pyrazine-3,5(4H)-dicarboxamide]: the IC50 on CK1δ and on CK1ε was 0.01 to 10 nM each time.

`COC12CCC(NC(=O)N3CCn4nc(-c5ccc(F)c(Cl)c5)c(C(N)=O)c4C3)(CC1)C2` [Compound A63, 2-(3-Chloro-4-fluorophenyl)-N^5-(4-methoxybicyclo[2.2.1]heptan-1-yl)-6,7-dihydropyrazolo[1,5-a]pyrazine-3,5(4H)-dicarboxamide]: the IC50 on CK1δ and on CK1ε was 0.01 to 10 nM throughout.

In the case of `NC(=O)c1c(-c2ccc(F)c(Cl)c2)nn2c1CN(C(=O)NC13CCCC(CCC1)C3)CC2` [Compound A64, N^5-((1r,5r)-Bicyclo[3.3.1]nonan-1-yl)-2-(3-chloro-4-fluorophenyl)-6,7-dihydropyrazolo[1,5-a]pyrazine-3,5(4H)-dicarboxamide], the IC50 at CK1δ and on CK1ε was 0.01 to 10 nM in each case.

Take `CC12CC3(C)CC(C)(C1)CC(NC(=O)N1CCn4nc(-c5ccc(F)c(Cl)c5)c(C(N)=O)c4C1)(C2)C3` [Compound A65, 2-(3-Chloro-4-fluorophenyl)-N^5-((3s,5s,7s)-3,5,7-trimethyladamantan-1-yl)-6,7-dihydropyrazolo[1,5-a]pyrazine-3,5(4H)-dicarboxamide]: the IC50 at CK1δ and at CK1ε was 0.01 to 10 nM throughout.

For `CC1(C)C2CCC1(NC(=O)N1CCn3nc(-c4ccc(F)c(Cl)c4)c(C(N)=O)c3C1)CC2O` (centres unmarked) [Compound A66, 2-(3-Chloro-4-fluorophenyl)-N^5-(3-hydroxy-7,7-dimethylbicyclo[2.2.1]heptan-1-yl)-6,7-dihydropyrazolo[1,5-a]pyrazine-3,5(4H)-dicarboxamide], the 50% inhibitory concentration (IC50) on CK1δ and on CK1ε was 0.01 to 10 nM each time.

Turning to `CC1(C)C2CCC1(NC(=O)N1CCn3nc(-c4ccc(F)c(Cl)c4)c(C(N)=O)c3C1)CC2F` (centres unmarked) [Compound A67, 2-(3-Chloro-4-fluorophenyl)-N^5-(3-fluoro-7,7-dimethylbicyclo[2.2.1]heptan-1-yl)-6,7-dihydropyrazolo[1,5-a]pyrazine-3,5(4H)-dicarboxamide], the IC50 on CK1δ and at CK1ε was 0.01 to 10 nM each time.

Regarding `CC12CC3CC(C)(C1)CC(NC(=O)N1CCn4nc(-c5ccc(F)c(Cl)c5)c(C(N)=O)c4C1)(C3)C2` [Compound A68, 2-(3-Chloro-4-fluorophenyl)-N^5-((1r,3R,5S,7r)-3,5-dimethyladamantan-1-yl)-6,7-dihydropyrazolo[1,5-a]pyrazine-3,5(4H)-dicarboxamide], the 50% inhibitory concentration (IC50) at CK1δ and on CK1ε was 0.01 to 10 nM in each case.

On to `C[C@@]12C[C@H]3C[C@@](Cl)(C1)C[C@](NC(=O)N1CCn4nc(-c5ccc(F)c(Cl)c5)c(C(N)=O)c4C1)(C3)C2` [Compound A69, 2-(3-Chloro-4-fluorophenyl)-N^5-((1S,3R,5S,7R)-3-chloro-5-methyladamantan-1-yl)-6,7-dihydropyrazolo[1,5-a]pyrazine-3,5(4H)-dicarboxamide], for which the concentration for half-maximal inhibition (IC50) on CK1δ and at CK1ε was 0.01 to 10 nM throughout.

With `COC12CCC(NC(=O)N3CCn4nc(-c5cccc(Cl)c5)c(C(N)=O)c4C3)(CC1)C(=O)C2` [Compound A76, 2-(3-Chlorophenyl)-N^5-(4-methoxy-2-oxobicyclo[2.2.2]octan-1-yl)-6,7-dihydropyrazolo[1,5-a]pyrazine-3,5(4H)-dicarboxamide], the IC50 on CK1δ and on CK1ε was 0.01 to 10 nM throughout.

Take `NC(=O)c1c(-c2cccc(Cl)c2)nn2c1CN(C(=O)NC13CCC(C(F)F)(CC1)CC3)CC2` [Compound A77, 2-(3-Chlorophenyl)-N^5-(4-(difluoromethyl)bicyclo[2.2.2]octan-1-yl)-6,7-dihydropyrazolo[1,5-a]pyrazine-3,5(4H)-dicarboxamide]: the IC50 on CK1δ and on CK1ε was 0.01 to 10 nM each time.

As to `NC(=O)c1c(-c2cccc(Cl)c2)nn2c1CN(C(=O)NC13CCC(CF)(CC1)CC3)CC2` [Compound A78, 2-(3-Chlorophenyl)-N^5-(4-(fluoromethyl)bicyclo[2.2.2]octan-1-yl)-6,7-dihydropyrazolo[1,5-a]pyrazine-3,5(4H)-dicarboxamide], the IC50 on CK1δ and on CK1ε was 0.01 to 10 nM each time.

As to `NC(=O)c1c(-c2cccc(Cl)c2)nn2c1CN(C(=O)NC13CCC(CC1)CC3)CC2` [Compound A79, N^5-(Bicyclo[2.2.2]octan-1-yl)-2-(3-chlorophenyl)-6,7-dihydropyrazolo[1,5-a]pyrazine-3,5(4H)-dicarboxamide], the half-inhibitory concentration (IC50) on CK1δ and at CK1ε was 0.01 to 10 nM in each case.

With `COC12CCC(NC(=O)N3CCn4nc(-c5cccc(Cl)c5)c(C(N)=O)c4C3)(CC1)CC2` [Compound A80, 2-(3-Chlorophenyl)-N^5-(4-methoxybicyclo[2.2.2]octan-1-yl)-6,7-dihydropyrazolo[1,5-a]pyrazine-3,5(4H)-dicarboxamide], the IC50 at CK1δ and on CK1ε was 0.01 to 10 nM throughout.

Turning to `COC12CCC(NC(=O)N3CCn4nc(-c5cccc(Cl)c5)c(C(N)=O)c4C3)(CC1)C(F)(F)C2` [Compound A81, 2-(3-Chlorophenyl)-N^5-(2,2-difluoro-4-methoxybicyclo[2.2.2]octan-1-yl)-6,7-dihydropyrazolo[1,5-a]pyrazine-3,5(4H)-dicarboxamide], the IC50 on CK1δ and on CK1ε was 0.01 to 10 nM in each case.

For the compound `COC12CCC(NC(=O)N3CCn4nc(-c5cccc(Cl)c5)c(C(N)=O)c4C3)(CC1)C2` [Compound A82, 2-(3-Chlorophenyl)-N^5-(4-methoxybicyclo[2.2.1]heptan-1-yl)-6,7-dihydropyrazolo[1,5-a]pyrazine-3,5(4H)-dicarboxamide], the IC50 at CK1δ and at CK1ε was 0.01 to 10 nM each time.

Source of the values: patent publication US9273058B2 (BRISTOL-MYERS SQUIBB COMPANY, priority 2013, dated 2016).
